Key:
honeybees = test: Honeybee repulsion experiment at feeding stations; assay type: in vivo; details: 2% by weight with 50% sucrose solution in feeder
Method: FIG. 5 describes the feeding station arrangement (A and B) for the honeybee repulsion experiments described herein. As set forth in […], panel (A) sets forth the bee cage positions on the left portion of panel (A) with the randomized feeding station positions on the right portion of panel (A). Panel (B) sets forth an alignment of the randomized feeding station positions with a distance of two meters between feeding stations. A total of eight feeding stations were evaluated at a ten meter distance in front of the respective bee hives. The feeding stations were placed two meters apart from one another.
Honeybees were trained to deep feeders (eight positions), each containing a 50% sucrose solution for one day. After the honeybees were trained to each feeder, the 50% sucrose feeder at randomized positions 1-8 was replaced with a shallow feeder containing a combination of repelling compounds and a 50% sucrose solution according to Table 9. In accordance with FIGS. 5 and 6, 2% by weight of Camphor oil (T4), Ajowan oil (T5), Camphor powder (T6), Rosemary oil (T7), and 2-Decanone (T8) in combination with a 50% sucrose treatment were added to feeders on day two.
Table 9 describes active agents evaluated for bee repulsion and their randomized feeding station positions. As described in […], T1 (control), T2 (control), T3 (control), T4 (Camphor oil), T5 (Ajowan oil), T6 (Camphor powder), T7 (Rosemary oil), and T8 (2-Decanone).
FIG. 5 evaluates the number of bees visiting a respective feed station over a time interval. FIG. 6 sets forth the mean number of honeybees visiting feeding station over a period of four hours.

[1] = Stability test of Poncho 600 with Eugenol, clothianidin content by HPLC; assay type: physicochemical; details: in Poncho combined with Eugenol; up to 54° C. for seven days
Method: Table 10 describes a stability test with a combination of Eugenol and Poncho evaluated at room temperature, 40° C., and 54° C. at zero time, 3 days, and 7 days as confirmed by high performance liquid chromatography (HPLC).

[2] = Stability test of Poncho 600 with α-terpineol, clothianidin content by HPLC; assay type: physicochemical; details: in Poncho combined with α-terpineol; up to 54° C. for eight days
Method: Table 11 describes a stability test with a combination of α-terpineol and Poncho 600 evaluated at room temperature, 40° C., and 54° C. at zero time, 2 days, and 8 days as confirmed by HPLC.

SMILES | Repellency to honeybees at 24 hours (honeybees) | Repellency to honeybees at 24 hours (honeybees; listed as 2-decanone) | Repellency to honeybees over the 4 hour assessment period (honeybees; full 4 hour assessment period) | Chemical stability of clothianidin content [1] | Chemical stability of clothianidin content [2]
CCCCCCCCC(C)=O [Compound 2-Decanone, 2-decanone (methyl-n-octyl ketone)] | exhibited repellency | still repellent | highly repellent | – | –
CN/C(=N\[N+](=O)[O-])NCc1cnc(Cl)s1 [clothianidin] | – | – | – | exhibited chemical stability | exhibited chemical stability
